Measured values from patent US3939266A, “Substituted sulfonylacetamido cephalosporins” (SmithKline Corporation, priority 1974, dated 1976).
≈ marks a conversion by molar mass, not a printed value. Where two headings read alike, the source gives them in different places.

Legend:
Assay type in all cases: cell-based
Strep. faecalis HH 34358 = test: MIC against Strep. faecalis HH 34358; conditions: Enterococcus faecalis, HH34358
Entero. cloaca PaSL 969 = test: MIC against Entero. cloaca PaSL 969
E. coli SK 12140 = test: MIC against E. coli SK 12140; conditions: Escherichia coli, SK12140
Salmonella ATCC 12176 = test: MIC against Salmonella ATCC 12176; conditions: ATCC12176
Kleb. pneumo. SK 4200 = test: MIC against Kleb. pneumo. SK 4200
S. aureus SK 23390 = test: MIC against S. aureus SK 23390; conditions: Staphylococcus aureus, SK23390
[1] = tested on: Entero. aerog. ATCH 13048; test: MIC against Entero. aerog. ATCH 13048
Pseudo. sp. HH 63 = test: MIC against Pseudo. sp. HH 63
E. coli HH 33779 = test: MIC against E. coli HH 33779; conditions: Escherichia coli, HH33779
Kleb. pneumo. SK 1200 = test: MIC against Kleb. pneumo. SK 1200
Shigella HH 112 = test: MIC against Shigella HH 112; conditions: HH112
S. aureus HH 127 = test: MIC against S. aureus HH 127; conditions: Staphylococcus aureus, HH127
Strep. pyog. C 203 = test: MIC against Strep. pyog. C 203
Serra. marc. ATCC 13880 = test: MIC against Serra. marc. ATCC 13880
S. villaluz = test: MIC against S. villaluz
[2] = Salmonella ATCC 12176, read-out: MIC
[3] = E. coli SK 12140, read-out: MIC

Structure (SMILES): Cc1nnc(SCC2=C(C(=O)O)N3C(=O)C(NC(=O)CS(C)(=O)=O)[C@H]3SC2)s1 (some centres unmarked) [Compound 55848, 7-Methylsulfonylacetamido-3-(2-methyl-1,3,4-thiadiazol-5-ylthiomethyl)-3-cephem-4-carboxylic acid]
- MIC (Strep. faecalis HH 34358): 50 µg/mL (≈ 108 µM)
- MIC (Entero. cloaca PaSL 969): > 200 µg/mL
- MIC (E. coli SK 12140): 12.5 µg/mL (≈ 26.9 µM)
- MIC (Salmonella ATCC 12176; [2]): 3.1 µg/mL (≈ 6.67 µM)
- MIC (Kleb. pneumo. SK 4200): 3.1 µg/mL (≈ 6.67 µM)
- MIC (S. aureus SK 23390): 1.6 µg/mL (≈ 3.44 µM)
- MIC [1]: > 200 µg/mL
- MIC (Pseudo. sp. HH 63): > 200 µg/mL
- MIC (E. coli HH 33779): 25 µg/mL (≈ 53.8 µM)
- MIC (Kleb. pneumo. SK 1200): 6.3 µg/mL (≈ 13.6 µM)
- MIC (Shigella HH 112; Shigella HH 112, read-out: MIC): 12.5 µg/mL (≈ 26.9 µM)
- MIC (S. aureus HH 127): 1.6 µg/mL (≈ 3.44 µM)
- MIC (Strep. pyog. C 203): 0.2 µg/mL (≈ 0.431 µM)

Structure (SMILES): Cc1nc(SCC2=C(C(=O)O)N3C(=O)C(NC(=O)CS(C)(=O)=O)C3SC2)n[nH]1 (centres unmarked) [Compound 59586]
- MIC (Strep. faecalis HH 34358): 100 µg/mL (≈ 223 µM)
- MIC (Entero. cloaca PaSL 969): > 200 µg/mL
- MIC (E. coli SK 12140; [3]): 6.3 µg/mL (≈ 14.1 µM)
- MIC (Serra. marc. ATCC 13880): > 200 µg/mL
- MIC (Salmonella ATCC 12176; [2]): 1.6 µg/mL (≈ 3.58 µM)
- MIC (Kleb. pneumo. SK 4200): 3.1 µg/mL (≈ 6.93 µM)
- MIC (S. aureus SK 23390): 0.8 µg/mL (≈ 1.79 µM)
- MIC [1]: 200 µg/mL (≈ 447 µM)
- MIC (Pseudo. sp. HH 63): > 200 µg/mL
- MIC (S. villaluz): 100 µg/mL (≈ 223 µM)
- MIC (E. coli HH 33779): 25 µg/mL (≈ 55.9 µM)
- MIC (Kleb. pneumo. SK 1200): 3.1 µg/mL (≈ 6.93 µM)
- MIC (Shigella HH 112; Shigella HH 112, read-out: MIC): 12.5 µg/mL (≈ 27.9 µM)
- MIC (S. aureus HH 127): 1.6 µg/mL (≈ 3.58 µM)
- MIC (Strep. pyog. C 203): 0.2 µg/mL (≈ 0.447 µM)

Structure (SMILES): CC1=C(C(=O)O)N2C(=O)C(NC(=O)CS(C)(=O)=O)[C@H]2SC1 (some centres unmarked) [Compound 59454, 7-Methylsulfonylacetamido-3-methyl-3-cephem-4-carboxylic acid]
- MIC (Strep. faecalis HH 34358): > 200 µg/mL
- MIC (Entero. cloaca PaSL 969): > 200 µg/mL
- MIC (E. coli SK 12140; [3]): > 200 µg/mL
- MIC (Serra. marc. ATCC 13880): > 200 µg/mL
- MIC (Salmonella ATCC 12176; [2]): > 200 µg/mL
- MIC (Kleb. pneumo. SK 4200): > 200 µg/mL
- MIC (S. aureus SK 23390): 25 µg/mL (≈ 74.8 µM)
- MIC [1]: > 200 µg/mL
- MIC (Pseudo. sp. HH 63): > 200 µg/mL
- MIC (S. villaluz): > 200 µg/mL
- MIC (E. coli HH 33779): > 200 µg/mL
- MIC (Kleb. pneumo. SK 1200): > 200 µg/mL
- MIC (Shigella HH 112; Shigella HH 112, read-out: MIC): > 200 µg/mL
- MIC (S. aureus HH 127): 25 µg/mL (≈ 74.8 µM)
- MIC (Strep. pyog. C 203): 0.4 µg/mL (≈ 1.2 µM)

Structure (SMILES): Cn1nnnc1SCC1=C(C(=O)O)N2C(=O)C(NC(=O)CS(C)(=O)=O)[C@H]2SC1 (some centres unmarked) [Compound 57286, 7-Methylsulfonylacetamido-3-(1-methyltetrazol-5-ylthiomethyl)-3-cephem-4-carboxylic acid]
- MIC (Strep. faecalis HH 34358): 100 µg/mL (≈ 223 µM)
- MIC (Entero. cloaca PaSL 969): > 200 µg/mL
- MIC (E. coli SK 12140; [3]): 3.1 µg/mL (≈ 6.91 µM)
- MIC (Serra. marc. ATCC 13880): > 200 µg/mL
- MIC (Salmonella ATCC 12176; [2]): 3.1 µg/mL (≈ 6.91 µM)
- MIC (Kleb. pneumo. SK 4200): 1.6 µg/mL (≈ 3.57 µM)
- MIC (S. aureus SK 23390): 1.6 µg/mL (≈ 3.57 µM)
- MIC [1]: > 200 µg/mL
- MIC (Pseudo. sp. HH 63): > 200 µg/mL
- MIC (E. coli HH 33779): 12.5 µg/mL (≈ 27.9 µM)
- MIC (Kleb. pneumo. SK 1200): 3.1 µg/mL (≈ 6.91 µM)
- MIC (Shigella HH 112; Shigella HH 112, read-out: MIC): 3.1 µg/mL (≈ 6.91 µM)
- MIC (S. aureus HH 127): 3.1 µg/mL (≈ 6.91 µM)
- MIC (Strep. pyog. C 203): 0.2 µg/mL (≈ 0.446 µM)

Structure (SMILES): Cn1cnnc1SCC1=C(C(=O)O)N2C(=O)C(NC(=O)CS(C)(=O)=O)C2SC1 (centres unmarked) [Compound 59758]
- MIC (Strep. faecalis HH 34358): 200 µg/mL (≈ 447 µM)
- MIC (E. coli SK 12140; [3]): 6.3 µg/mL (≈ 14.1 µM)
- MIC (Serra. marc. ATCC 13880): > 200 µg/mL
- MIC (Salmonella ATCC 12176; Salmonella): 3.1 µg/mL (≈ 6.93 µM)
- MIC (Kleb. pneumo. SK 4200): 6.3 µg/mL (≈ 14.1 µM)
- MIC (S. aureus SK 23390): 1.6 µg/mL (≈ 3.58 µM)
- MIC [1]: > 200 µg/mL
- MIC (Pseudo. sp. HH 63): > 200 µg/mL
- MIC (S. villaluz): 50 µg/mL (≈ 112 µM)
- MIC (E. coli HH 33779): 12.5 µg/mL (≈ 27.9 µM)
- MIC (Kleb. pneumo. SK 1200): 6.3 µg/mL (≈ 14.1 µM)
- MIC (Shigella HH 112; Shigella): 0.1 µg/mL (≈ 0.223 µM)
- MIC (S. aureus HH 127): 3.1 µg/mL (≈ 6.93 µM)
- MIC (Strep. pyog. C 203): 0.1 µg/mL (≈ 0.223 µM)

Structure (SMILES): CS(=O)(=O)CC(=O)NC1C(=O)N2C(C(=O)[O-])=C(C[n+]3ccccc3)CSC12 (centres unmarked) [Compound 59345, 7-Methylsulfonylacetamido-3-(1-pyridiniummethyl)-3-cephem-4-carboxylic acid]
- MIC (Strep. faecalis HH 34358): 100 µg/mL (≈ 243 µM)
- MIC (Entero. cloaca PaSL 969): > 200 µg/mL
- MIC (E. coli SK 12140; [3]): 100 µg/mL (≈ 243 µM)
- MIC (Serra. marc. ATCC 13880): > 200 µg/mL
- MIC (Salmonella ATCC 12176; [2]): 50 µg/mL (≈ 122 µM)
- MIC (Kleb. pneumo. SK 4200): 50 µg/mL (≈ 122 µM)
- MIC (S. aureus SK 23390): 0.8 µg/mL (≈ 1.94 µM)
- MIC [1]: > 200 µg/mL
- MIC (Pseudo. sp. HH 63): > 200 µg/mL
- MIC (S. villaluz): 25 µg/mL (≈ 60.8 µM)
- MIC (E. coli HH 33779): 100 µg/mL (≈ 243 µM)
- MIC (Kleb. pneumo. SK 1200): 100 µg/mL (≈ 243 µM)
- MIC (Shigella HH 112; Shigella HH 112, read-out: MIC): 50 µg/mL (≈ 122 µM)
- MIC (S. aureus HH 127): 0.8 µg/mL (≈ 1.94 µM)
- MIC (Strep. pyog. C 203): 0.1 µg/mL (≈ 0.243 µM)
